In patent US7893067B2, “Cysteine protease inhibitors” (Medivir AB, priority 2007, dated 2011):

Tests used:
[1] = Metabolic stability in human hepatic cytosol assay; format: in vitro ADME; details: 2 μM in pooled human liver cytosol, 1 mg/mL protein, pH 7.4, 37°, 1 mM NADPH
Experimental: Compounds of the invention and the indicated comparative examples were tested for metabolic stability in a cytosol assay in which the compounds were incubated with commercially available human hepatic cytosol fractions and the disappearance of the compound monitored by HPLC or LC/MS. Pooled human liver cytosol fractions are less likely to represent outlier individuals than blood from a single individual and can be stored frozen, unlike whole blood. The cytosol assay thus provides a consistent assay testbed as a guide to the stability of a compound in the in vivo environment, such as when exposed to whole blood.
In short, test compounds (2 μM) are incubated in pooled human liver cytosol (Xenotech LLC Lenexa US, 1 mg/mL protein in 0.1M phosphate buffer, pH 7.4) at 37° centigrade over a one hour period. The incubations are initiated by the addition of 1 mM NADPH co-factor. Timed sub-samples were taken at 0, 20, 40 and 60 minutes and “crash precipitated” by the addition of 3 volumes of ice-cold acetonitrile. The samples were centrifuged at reduced temperature and the supernatants were separated and analyzed by LC-MS-MS.

[2] = Caco-2 permeability (Papp); format: in vitro ADME; details: human; Caco-2 assay, standard concentration 10 μM
Experimental: The transport plate comprises 3 rows of 4 wells.
Determination of the cumulative fraction absorbed, FAcum, versus time. FAcum is calculated from: […]
A linear relationship should be obtained.

[3] = molecular target: human cathepsin L (Homo sapiens, UniProt P07711); experiment: Cathepsin L Ki; format: biochemical
Sequence of human cathepsin L (P07711 114-333): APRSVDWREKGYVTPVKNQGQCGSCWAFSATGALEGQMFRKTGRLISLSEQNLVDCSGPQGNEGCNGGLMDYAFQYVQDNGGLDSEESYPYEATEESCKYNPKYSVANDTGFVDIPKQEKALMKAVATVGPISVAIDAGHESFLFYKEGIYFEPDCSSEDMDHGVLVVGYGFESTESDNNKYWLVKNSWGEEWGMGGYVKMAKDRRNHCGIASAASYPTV
Experimental: The procedure above with the following amendments is used for the determination of Ki for cathepsin L.
The enzyme is commercially available human cathepsin L (for example Calbiochem). The substrate is H-D-Val-Leu-Lys-AMC available from Bahcem. The assay buffer is 100 mM sodium acetate 1 mM EDTA, pH5.5) The DMSO stock (10 mM in 100% DMSO) is diluted to 10% in assay buffer. Enzyme is prepared at 5 nM concentration in assay buffer plus 1 mM dithiothreitol just before use. 2 ul of 10 mM inhibitor made up in 100% DMSO is dispensed into row A. 10 ul of 50 uM substrate (=1/200 dilution of 10 mM stock in DMSO, diluted in assay buffer)
(§1) Potential inhibitors are screened using the above assay with variable concentrations of test compound. Reactions were initiated by addition of enzyme to buffered solutions of substrate and inhibitor. Ki values were calculated according to equation 1
(§2) [formula] where v0 is the velocity of the reaction, V is the maximal velocity, S is the concentration of substrate with Michaelis constant of KM, and/is the concentration of inhibitor.

[4] = molecular target: T1, baculovirus-expressed human cathepsin S (Homo sapiens, UniProt P25774); experiment: Cathepsin S Ki determination; format: biochemical
T1 construct: made in house
T1 sequence (P25774 115-331): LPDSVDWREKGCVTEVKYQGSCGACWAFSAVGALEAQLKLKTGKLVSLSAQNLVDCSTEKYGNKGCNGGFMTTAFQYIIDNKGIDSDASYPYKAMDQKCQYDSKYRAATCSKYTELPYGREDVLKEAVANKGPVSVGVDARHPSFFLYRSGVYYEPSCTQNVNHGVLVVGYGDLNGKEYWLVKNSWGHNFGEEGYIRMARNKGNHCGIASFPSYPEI
Experimental: 280 μl/well of 12.5% DMSO are added to rows B-H of two columns of a 96 deep well polypropylene plate. 70 μl/well of substrate is added to row A. 2×250 μl/well of assay buffer (100 mM Na phosphate, 100 mM NaCl, pH 6.5) is added to row A, mixed, and double diluted down the plate to row H. 100 μl/well of assay buffer is added to columns 2-5 and 7-12 of 4 rows of a 96 well V bottom polypropylene plate. 200 μl/well of assay buffer is added to columns 1 and 6. […] Add 90 μl assay buffer containing 1 mM DTT and 2 nM cathepsin S to each well of rows B-H and 180 μl to row A. Mix row A using a multichannel pipette and double dilute to row G. Mix row H and read in the fluorescent spectrophotometer. […] The second test compound is added to column 6 of the top row, the third to column 1 of the second row etc. Add 1 μl of comparator to column 6 of the bottom row. Mix column 1 and double dilute to column 5. Mix column 6 and double dilute to column 10. Using an 8-channel multistepping pipette set to 5×10 μl, distribute 10 μl/well of substrate to the 384 well assay plate. Distribute the first column of the substrate dilution plate to all columns of the assay plate starting at row A. The tip spacing of the multichannel pipette will correctly skip alternate rows. Distribute the second column to all columns starting at row B. Using a 12-channel multistepping pipette set to 4×10 μl, distribute 10 μl/well of inhibitor to the 384 well assay plate. Distribute the first row of the inhibitor dilution plate to alternate rows of the assay plate starting at A1. The tip spacing of the multichannel pipette will correctly skip alternate columns. Similarly, distribute the second, third and fourth rows to alternate rows and columns starting at A2, B1 and B2 respectively. Mix 20 ml assay buffer and 20 μl 1M DTT. Add sufficient cathepsin S to give 2 nM final concentration. Using the a distributor such as a Multidrop 384, add 30 μl/well to all wells of the assay plate and read in fluorescent spectrophotomoter such as an Ascent. Fluorescent readings, (excitation and emission wavelengths 390 nm and 460 nm respectively, set using bandpass filters) reflecting the extent of enzyme cleavage of the fluorescent substrate, notwithstanding the inhibitor, are linear rate fitted for each well. Fitted rates for all wells for each inhibitor are fitted to the competitive inhibition equation using SigmaPlot 2000 to determine V, Km and Ki values. Potential inhibitors are screened using the above assay with variable concentrations of test compound. Reactions were initiated by addition of enzyme to buffered solutions of substrate and inhibitor. Ki values were calculated according to equation 1 [formula] where v0 is the velocity of the reaction, V is the maximal velocity, S is the concentration of substrate with Michaelis constant of KM, and/is the concentration of inhibitor.

[5] = molecular target: T2, human recombinant cathepsin K (Homo sapiens, UniProt P43235); experiment: Determination of cathepsin K proteolytic catalytic activity (Ki); format: biochemical
T2 construct: made in house; host or cells: not fixed: E coli, Pichia or Baculovirus systems named as options
T2 sequence (P43235 115-329): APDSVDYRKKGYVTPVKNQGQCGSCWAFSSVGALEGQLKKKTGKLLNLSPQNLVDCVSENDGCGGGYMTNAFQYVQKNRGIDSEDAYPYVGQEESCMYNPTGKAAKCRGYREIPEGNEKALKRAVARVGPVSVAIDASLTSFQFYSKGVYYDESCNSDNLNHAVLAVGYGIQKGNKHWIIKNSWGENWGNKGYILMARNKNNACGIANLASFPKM
Experimental: Convenient assays for cathepsin K are carried out using human recombinant enzyme, such as that described in PDB.
The recombinant cathepsin K can be expressed in a variety of commercially available expression systems including E coli, Pichia and Baculovirus systems. The purified enzyme is activated by removal of the prosequence by conventional methods.
Standard assay conditions for the determination of kinetic constants used a fluorogenic peptide substrate, typically H-D-Ala-Leu-Lys-AMC, and were determined in either 100 mM Mes/Tris, pH 7.0 containing 1 mM EDTA and 10 mM 2-mercaptoethanol or 100 mM Na phosphate, imM EDTA, 0.1% PEG4000 pH 6.5 or 100 mM Na acetate, pH 5.5 containing 5 mM EDTA and 20 mM cysteine, in each case optionally with […] as stabiliser. The enzyme concentration used was 5 nM. The stock substrate solution was prepared at 10 mM in DMSO. Screens were carried out at a fixed substrate concentration of 60 μM and detailed kinetic studies with doubling dilutions of substrate from 250 μM. The total DMSO concentration in the assay was kept below 3%. All assays were conducted at ambient temperature. Product fluorescence (excitation at 390 nm, emission at 460 nm) was monitored with a Labsystems Fluoroskan Ascent fluorescent plate reader. Product progress curves were generated over 15 minutes following generation of AMC product.
as §1, §2

[6] = representative values from specific batches of compound/enzyme/assay occasion

Q: Which half-life at 2 μM [1] does the source give for `CC(C)C[C@H](NC(=O)c1ccc(-c2nc(N3CCN(C)CC3)sc2F)cc1)C(=O)N1C[C@@H](Cl)[C@H]2OCC(=O)[C@H]21` [Example 12, N-[1-(6-Chloro-3-oxo-hexahydro-furo[3,2-b]pyrrole-4-carbonyl)-3-methyl-butyl]-4-[5-fluoro-2-(4-methyl-piperazin-1-yl)-thiazol-4-yl]-benzamide] here?
A: 4.5 h

Q: And the Papp at 120 min, 10 μM [2]?
A: 10 ×10⁻⁶ cm/s

Q: And the Ki ([3]; Table 1, class symbols)?
A: 1000 to 5000 nM

Q: And the Ki [3, 6]?
A: 1600 nM

Q: What about the Ki ([4]; Table 1, class symbols) of the same compound?
A: > 10000 nM

Q: What about the Ki [4, 6] of the same compound?
A: 11000 nM

Q: What about the Ki ([5]; Table 1, class symbols) of the same compound?
A: < 50 nM

Q: And the Ki [5, 6]?
A: 1.8 nM
